Assay results published in PubChem BioAssay AID330 (DTP/NCI, 2004).
Toxic doses and inconclusive results are not listed.

System: P388 leukemia ip, CD2F1 mice, survival T/C
Test: NCI In Vivo Anticancer Drug Screen. Data for tumor model P388 Leukemia (intraperitoneal) in CD2F1 (CDF1) mice
Details: endpoint: median survival time, higher = longer survival
Summary of the method: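 Mice carrying the transplanted tumor received test compound or vehicle. Survival was recorded in each group, and the value is the treated-group measurement divided by that of the vehicle-treated control group.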

[1] = dose: 50.0 mg/kg/injection, schedule: Q01DX005 (ip), vehicle: Klucel (hydroxypropylcellulose) (HPC)
[2] = dose: 100.0 mg/kg/injection, schedule: Q01DX005 (ip), vehicle: Klucel (hydroxypropylcellulose) (HPC)
[3] = dose: 200.0 mg/kg/injection, schedule: Q01DX005 (ip), vehicle: Klucel (hydroxypropylcellulose) (HPC)
[4] = dose: 60.0 mg/kg/injection, schedule: Q01DX005 (ip), vehicle: saline with Tween-80
[5] = dose: 120.0 mg/kg/injection, schedule: Q01DX005 (ip), vehicle: saline with Tween-80
[6] = dose: 240.0 mg/kg/injection, schedule: Q01DX005 (ip), vehicle: saline with Tween-80

C=C1C(O)CC2C(O)C3(C)CCC(C)(C)C3C12O (stereo not drawn)
T/C (dose: 18.75 mg/kg/injection, schedule: Q01DX009 (ip), vehicle: other): 106 % of control
T/C (dose: 37.5 mg/kg/injection, schedule: Q01DX009 (ip), vehicle: other): 98 % of control
T/C (dose: 75.0 mg/kg/injection, schedule: Q01DX009 (ip), vehicle: other): 100 % of control
T/C (dose: 150.0 mg/kg/injection, schedule: Q01DX009 (ip), vehicle: other): 93 % of control

Nc1cc2cccc[n+]2c2ccccc12
T/C (dose: 3.75 mg/kg/injection, schedule: Q01DX005 (ip), vehicle: saline): 110 % of control
T/C (dose: 7.5 mg/kg/injection, schedule: Q01DX005 (ip), vehicle: saline): 106 % of control
T/C (dose: 15.0 mg/kg/injection, schedule: Q01DX005 (ip), vehicle: saline): 120 % of control

Cc1nc2c(cnn2CN2CCCCC2)c(=O)n1-c1ccccc1
T/C [1]: 100 % of control
T/C [2]: 101 % of control
T/C [3]: 107 % of control

O=[N+]([O-])c1cccc(Cl)c1C(Nc1nncs1)Nc1nncs1
T/C (dose: 60.0 mg/kg/injection, schedule: Q01DX005 (ip), vehicle: Klucel (hydroxypropylcellulose) (HPC)): 96 % of control
T/C (dose: 120.0 mg/kg/injection, schedule: Q01DX005 (ip), vehicle: Klucel (hydroxypropylcellulose) (HPC)): 106 % of control
T/C (dose: 240.0 mg/kg/injection, schedule: Q01DX005 (ip), vehicle: Klucel (hydroxypropylcellulose) (HPC)): 118 % of control

O=C1CC2(CCCC2)CC(=O)N1c1ccc(O)c(CN2CCCCC2)c1
T/C (dose: 50.0 mg/kg/injection, schedule: Q01DX009 (ip), vehicle: Klucel (hydroxypropylcellulose) (HPC)): 105 % of control
T/C (dose: 100.0 mg/kg/injection, schedule: Q01DX009 (ip), vehicle: Klucel (hydroxypropylcellulose) (HPC)): 100 % of control
T/C (dose: 200.0 mg/kg/injection, schedule: Q01DX009 (ip), vehicle: Klucel (hydroxypropylcellulose) (HPC)): 102 % of control

COc1cc2c(cc1C(CC(C)=O)c1cc(OC)c(OC)c(OC)c1)OCO2 (stereo not drawn)
T/C [4]: 100 % of control
T/C [5]: 100 % of control
T/C [6]: 103 % of control

O=C1/C(=C/c2ccccn2)CCc2ccccc21
T/C (dose: 50.0 mg/kg/injection, schedule: Q01DX009 (ip), vehicle: saline): 102 % of control
T/C (dose: 100.0 mg/kg/injection, schedule: Q01DX009 (ip), vehicle: saline): 101 % of control
T/C (dose: 200.0 mg/kg/injection, schedule: Q01DX009 (ip), vehicle: saline): 99 % of control

CCC1=NOC(n2c3ccccc3c3ccccc32)C1 (stereo not drawn)
T/C [1]: 100 % of control
T/C [2]: 100 % of control
T/C [3]: 95 % of control

C=CCc1ccccc1OC
T/C (dose: 50.0 mg/kg/injection, schedule: Q04DX003 (ip), vehicle: saline): 100 % of control
T/C (dose: 100.0 mg/kg/injection, schedule: Q04DX003 (ip), vehicle: saline): 95 % of control
T/C (dose: 200.0 mg/kg/injection, schedule: Q04DX003 (ip), vehicle: saline): 100 % of control

CCCCCCNP1(NCCCCCC)=NP(NCCCCCC)(NCCCCCC)=NP(NCCCCCC)(NCCCCCC)=NP(NCCCCCC)(NCCCCCC)=N1
T/C (dose: 37.5 mg/kg/injection, schedule: Q01DX005 (ip), vehicle: Klucel (hydroxypropylcellulose) (HPC)): 90 % of control
T/C (dose: 75.0 mg/kg/injection, schedule: Q01DX005 (ip), vehicle: Klucel (hydroxypropylcellulose) (HPC)): 97 % of control

N#Cc1c(-c2ccc(Cl)cc2)cn2c1[nH]c(=O)c1ccccc12
T/C [4]: 107 % of control
T/C [5]: 102 % of control
T/C [6]: 96 % of control

CC[C@@]1(O)CC(OC2CC(N3CCOCC3)C(O)C(C)O2)c2c(O)c3c(c(O)c2[C@H]1O)C(=O)c1cccc(O)c1C3=O (stereo partly drawn)
T/C (dose: 0.89 mg/kg/injection, schedule: Q04DX003 (iv), vehicle: saline): 163 % of control
T/C (dose: 1.33 mg/kg/injection, schedule: Q04DX003 (iv), vehicle: saline): 186 % of control
T/C (dose: 2.0 mg/kg/injection, schedule: Q04DX003 (iv), vehicle: saline): 209 % of control
T/C (dose: 3.0 mg/kg/injection, schedule: Q04DX003 (iv), vehicle: saline): 242 % of control
T/C (dose: 4.5 mg/kg/injection, schedule: Q04DX003 (iv), vehicle: saline): 113 % of control

O=C(CCBr)N1CCN(C(=O)CCBr)CC1
T/C (dose: 2.5 mg/kg/injection, schedule: Q01DX009 (ip), vehicle: saline): 100 % of control
T/C (dose: 5.0 mg/kg/injection, schedule: Q01DX009 (ip), vehicle: saline): 104 % of control
T/C (dose: 5.0 mg/kg/injection, schedule: Q01DX010 (ip), vehicle: Klucel (hydroxypropylcellulose) (HPC)): 108 % of control
T/C (dose: 10.0 mg/kg/injection, schedule: Q01DX009 (ip), vehicle: saline): 112 % of control
T/C (dose: 10.0 mg/kg/injection, schedule: Q01DX010 (ip), vehicle: Klucel (hydroxypropylcellulose) (HPC)): 120 % of control
T/C (dose: 20.0 mg/kg/injection, schedule: Q01DX009 (ip), vehicle: saline): 112 % of control
T/C (dose: 40.0 mg/kg/injection, schedule: Q01DX009 (ip), vehicle: saline): 169 % of control
T/C (dose: 40.0 mg/kg/injection, schedule: Q01DX010 (ip), vehicle: Klucel (hydroxypropylcellulose) (HPC)): 171 % of control
T/C (dose: 80.0 mg/kg/injection, schedule: Q01DX009 (ip), vehicle: saline): 110 % of control
T/C (dose: 80.0 mg/kg/injection, schedule: Q01DX010 (ip), vehicle: Klucel (hydroxypropylcellulose) (HPC)): 91 % of control
